Results taken from ChEMBL document CHEMBL2074474, “Prodrugs of purine and pyrimidine analogues for the intestinal di/tri-peptide transporter PepT1: affinity for hPepT1 in Caco-2 cells, drug release in aqueous media and in vitro metabolism” (J Control Release, 2003).

Biological target: T1, Solute carrier family 15 member 1 (Homo sapiens, UniProt P46059)
T1 sequence (P46059 whole entry): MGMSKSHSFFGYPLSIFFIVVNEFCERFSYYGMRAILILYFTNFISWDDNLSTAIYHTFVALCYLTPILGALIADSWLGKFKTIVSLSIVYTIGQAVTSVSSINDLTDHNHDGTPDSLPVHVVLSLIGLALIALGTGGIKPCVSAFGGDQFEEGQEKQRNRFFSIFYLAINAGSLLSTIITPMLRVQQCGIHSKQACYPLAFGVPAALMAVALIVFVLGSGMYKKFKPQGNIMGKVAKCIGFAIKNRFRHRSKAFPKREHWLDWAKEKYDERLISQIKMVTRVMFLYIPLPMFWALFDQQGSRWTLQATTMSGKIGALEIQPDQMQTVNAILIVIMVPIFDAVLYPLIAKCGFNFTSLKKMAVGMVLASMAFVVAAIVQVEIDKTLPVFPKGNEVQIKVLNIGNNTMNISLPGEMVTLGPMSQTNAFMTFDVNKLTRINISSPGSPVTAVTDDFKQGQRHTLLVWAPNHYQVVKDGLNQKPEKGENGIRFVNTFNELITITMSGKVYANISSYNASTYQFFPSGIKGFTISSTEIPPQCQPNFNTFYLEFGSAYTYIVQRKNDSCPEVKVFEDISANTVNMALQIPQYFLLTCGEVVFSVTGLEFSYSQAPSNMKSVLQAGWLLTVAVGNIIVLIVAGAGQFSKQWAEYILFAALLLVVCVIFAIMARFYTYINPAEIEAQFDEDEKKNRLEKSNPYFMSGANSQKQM
Assay: TP_TRANSPORTER: inhibition of Gly-Sar uptake in Caco-2 cells
Assay type: functional, cell-based

Ki	Compound
280 µM	CN(CC(=O)O)C(=O)[C@@H](N)CCC(=O)OCCOCn1cnc2c(=O)[nH]c(N)nc21
210 µM	Cc1cn(COC(=O)C(O)C[C@H](N)C(=O)N(C)CC(=O)O)c(=O)[nH]c1=O (some centres not stated)
